Laboratory results from publication PMC8459327, “Identification of molecular glues of the SLP76/14-3-3 protein–protein interaction” (RSC Medicinal Chemistry, 2021).
“Also recorded” adds a separate entry of the source.

Columns and labels:
Format in all cases: binding
14-3-3γ/SLP76 [1] = biological target: T1, 14-3-3γ/SLP76 (Homo sapiens, UniProt P61981+Q13094); experiment: HTRF dose-response assay on 14-3-3γ/SLP76; conditions: stabilisation; 14-3-3γ-Tb 1 nM, SLP76-AF647 600 nM, 5% DMSO; EC50 estimated from fit; read-out: HTRF EC50 14-3-3γ/SLP76
T1 sequence (Q13094 356-533): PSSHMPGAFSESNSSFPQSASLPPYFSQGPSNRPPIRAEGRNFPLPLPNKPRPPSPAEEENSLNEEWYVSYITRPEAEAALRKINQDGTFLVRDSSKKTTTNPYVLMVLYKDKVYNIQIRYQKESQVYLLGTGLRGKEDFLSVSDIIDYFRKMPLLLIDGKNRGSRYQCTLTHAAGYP
T1 sequence (P61981 whole entry): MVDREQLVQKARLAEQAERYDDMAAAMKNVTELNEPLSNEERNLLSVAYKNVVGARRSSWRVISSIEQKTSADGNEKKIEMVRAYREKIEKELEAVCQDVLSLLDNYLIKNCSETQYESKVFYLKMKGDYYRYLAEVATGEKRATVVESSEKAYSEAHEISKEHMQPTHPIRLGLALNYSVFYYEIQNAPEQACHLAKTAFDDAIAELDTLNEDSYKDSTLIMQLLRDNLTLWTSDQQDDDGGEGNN
Experimental: 384-Well logistic plates were prefilled with 2 μL of compounds at 2 mM, 100% DMSO, except for columns 1, 2, 23 and 24. Columns 1, 2 were filled with 2 μL of DMSO while columns 23, 24 were filled with 2 μL of the 14-3-3 inhibitor R18 at 20 μM using a Multidrop Dispenser (ThermoScientific). Next, 40 μL of protein mixture containing Tb-labelled 14-3-3γ at 1 nM and AF647 labelled SLP76 at 600 nM in assay buffer (50 mM Tris pH 7.5, 150 mM NaCl, 5 mM MgCl2, 0.05% v/v Tween-20) were added using a Multidrop Dispenser (ThermoScientific). […] To perform the assay, 30 μL volumes were then transferred using a Biomek FX^P Automated Workstation (Beckman Coulter) into Corning 384-well 3574 assay plates. The plates were incubated at room temperature with gentle shaking for 4 h. Finally, the data were collected on a PHERAstar FSX plate reader (BMG Labtech) with an λex 337 nm, λem 665 nm and 620 nm HTRF filter setting. The data were exported in IDBS ActivityBase (IDBS) where they were normalised setting the R18 negative control as 100% inhibition and the DMSO control as 0%. Negative percentage values were therefore associated with a stabilisation of the 14-3-3γ/SLP76 interaction. The threshold of −20% inhibition (or 20% stabilisation) was chosen to select the hits to follow up. The selected hits were retested on 14-3-3γ/SLP76 and were also tested against an unrelated protein pair (IL-17/receptor) in a similar assay setup. […] All the assays were performed as described above.
(§1) 384 logistic plates were prefilled with 40 μL of compounds at 10 mM, 100% DMSO in column 3. Columns 1, 2 and 4 to 22 were filled with 20 μL of 100% DMSO with a Multidrop Dispenser (ThermoScientific). 2-Fold dilutions of the compounds were carried over from column 3 to 22, with a CyBio FeliX liquid handler (analytikjena). 2 μL of R18 peptide at 20 μM was added to columns 23 and 24 of the Corning 384-well 3574 final assay plates with a Multidrop Dispenser (ThermoScientific). 40 μL of protein mixture, containing Tb labelled 14-3-3γ at 1 nM and AF647 labelled SLP76 at 600 nM in assay buffer (50 mM Tris pH 7.5, 150 mM NaCl, 5 mM MgCl2, 0.05% v/v Tween-20) were added with a Multidrop Dispenser (ThermoScientific) into the Corning 384-well 3574 final assay plates. 2 μL of compounds along with the DMSO control were then transferred with a CyBio FeliX liquid handler (analytikjena) from the 384 logistic plates to the final Corning 384-well 3574 assay plates. […] The dose–response on the first 64 compounds was performed in singlet from a 500 μM top concentration. The repetition on the best 16 compounds was performed in duplicates from a 250 μM top concentration. A dose–response assay on an unrelated 14-3-3ζ/p27 HTRF protein pair was performed as described above. Incubation, data acquisition and normalisation were performed as described above. For EC50 estimation, the data were fitted with a “log(agonist) vs. response (three parameters)” model on GraphPad Prism version 8.1.1 for Windows, GraphPad Software, La Jolla California USA, www.graphpad.com. In the case of duplicates, each data point is the average of a duplicate measurement, standard deviation is reported as error bars.

14-3-3γ/SLP76 [2] = biological target: T1, 14-3-3γ/SLP76; experiment: HTRF dose-ratio assay (SLP76 titration at fixed compound concentrations)
Experimental: Each protein titration was performed in the presence of a fixed concentration of compound. […] Proteins and R18 peptide were diluted from their stock concentration in assay buffer (50 mM Tris pH 7.5, 150 mM NaCl, 5 mM MgCl2, 0.05% v/v Tween-20). Incubation and data acquisition were performed as described above. […] For data analysis the background FRET signal generated by the titration in the presence of R18 10 μM was removed from all values. KD values for each curve were estimated and comparison with the different concentration of compounds were made. The data were fitted with a “One site – specific” model on GraphPad Prism version 8.1.1 for Windows, GraphPad Software, La Jolla California USA, www.graphpad.com. Each data point is the average of a duplicate measurement, standard deviation is reported as error bars.

14-3-3γ/SLP76 [3] = biological target: T1, 14-3-3γ/SLP76; experiment: Orthogonal SPR assay, compound flowed with SLP76 over immobilised 14-3-3γ; conditions: for Stabilisation in SPR (in words): off-rate / mass on chip versus runs without compound; for SPR RU (%) mass increase 14-3-3γ/SLP76: percentage of SLP76 remained on the chip after the dissociation phase (+240 s)
Experimental: Of the 16 hit compounds 13 were tested in an orthogonal SPR assay in which each compound was flowed with SLP76 over 14-3-3γ immobilised on the chip. Runs at different concentrations of compound were compared to the runs in absence of compound. […] The effect of the compounds on 14-3-3γ/SLP76 was measured by calculating the percentage of SLP76 remained on the chip after the dissociation phase and immediately before: RU (%) = RU 5 s before dissociation/RU +240 s after dissociation. Dose–response curves were extrapolated from those sensorgrams plotting the RU (%) mass increase over the increase in compound concentrations.
SPR experiments were performed on a Biacore T200 (Cytiva). The Sensor Chip NTA was validated as previously reported by Soini et al.[63] A DMSO tolerance at 2% and 5% was performed in the same way (Fig. S1 ^†).
For compounds testing, the compounds were preincubated with SLP76, in final DMSO concentration of 5%. The compounds were tested at a single concentration of 100 μM and at multiple concentrations following a 3-fold dilution from a top concentration of 100 μM with SLP76 at the saturation concentration of 250 nM. A second set of experiments were performed at multiple concentrations of compound following a 3-fold dilution from a top concentration of 200 μM with SLP76 around the KD concentration of 40 nM. The SLP76/compound mixtures were flowed over the immobilised 14-3-3γ at 30 μL min^−1 for 180 s before allowing dissociation for 5 minutes. After every cycle, the chip was washed with EDTA and Ni^2+ and 14-3-3γ reinjected for the next cycle. The compound effects were measured by calculating the percentage of SLP76 remained on the chip after the dissociation phase and right before: RU (%) = RU 5 s before dissociation/RU +240 s after dissociation. RU response points relative to +240 s after dissociation were also plotted and an apparent EC50 was estimated. The data were fitted with a “One site – specific” model on GraphPad Prism version 8.1.1 for Windows, GraphPad Software, La Jolla California USA, www.graphpad.com.

14-3-3ζ/p27 = 14-3-3ζ/p27 (Homo sapiens, UniProt P46527+P63104); experiment: HTRF dose-response assay on 14-3-3ζ/p27; conditions: for EC50: stabilisation, same FRET pair, EC50 estimated from fit, read-out: HTRF EC50 14-3-3ζ/p27; for Selectivity between 14-3-3γ/SLP76 and 14-3-3ζ/p27 (in words): comparison of HTRF dose-responses
14-3-3ζ/p27, sequence (P63104 whole entry): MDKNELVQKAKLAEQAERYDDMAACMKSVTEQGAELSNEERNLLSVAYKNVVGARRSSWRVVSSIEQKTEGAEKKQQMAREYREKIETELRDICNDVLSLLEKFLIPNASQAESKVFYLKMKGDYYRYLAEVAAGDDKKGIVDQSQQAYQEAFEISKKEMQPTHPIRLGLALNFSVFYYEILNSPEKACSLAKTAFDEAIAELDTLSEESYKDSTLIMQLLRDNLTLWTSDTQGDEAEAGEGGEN
14-3-3ζ/p27, sequence (P46527 whole entry): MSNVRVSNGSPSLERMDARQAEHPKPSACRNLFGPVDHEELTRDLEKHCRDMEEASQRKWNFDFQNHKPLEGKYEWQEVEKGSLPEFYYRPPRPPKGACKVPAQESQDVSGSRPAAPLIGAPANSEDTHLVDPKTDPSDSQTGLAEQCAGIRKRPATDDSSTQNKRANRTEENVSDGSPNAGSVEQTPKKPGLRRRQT
Experimental: as §1

c1cc(-c2nnc3scnn23)ccn1 [Compound 7, 3-pyridin-4-yl-[1,2,4]triazolo[3,4-b][1,3,4]thiadiazole]
EC50 (14-3-3γ/SLP76 [1]): 5.3 ± 1.9 µM
KD improvement in the SLP76 HTRF assay (14-3-3γ/SLP76 [2]): fourfold
Stabilisation in SPR (in words) (14-3-3γ/SLP76 [3]): orthogonally confirmed by SPR; also recorded: strong concentration dependence in off-rate
SPR RU (%) mass increase 14-3-3γ/SLP76 (14-3-3γ/SLP76 [3]): 57.7%
Stabilisation of 14-3-3ζ/p27 in HTRF (in words) (14-3-3ζ/p27): no measurable modulation
EC50 (14-3-3ζ/p27): > 250 µM

COc1ccc(C(=O)N2C[C@@H]3CN(CCO3)C(=O)[C@@H]3C[C@@H](CN3Cc3cccnc3)NC(=O)C[C@@H]3O[C@H](C2)[C@@H](O)[C@H]3O)cc1 [Compound 3, (3S,6S,10S,11R,12S,13R,17R)-11,12-dihydroxy-15-(4-methoxybenzoyl)-4-(pyridin-3-ylmethyl)-18,22-dioxa-1,4,7,15-tetrazatetracyclo[15.3.1.13,6.110,13]tricosane-2,8-dione]
EC50 (14-3-3γ/SLP76 [1]): 14.4 ± 1.9 µM
KD improvement in the SLP76 HTRF assay (14-3-3γ/SLP76 [2]): 10 fold
Stabilisation in SPR (in words) (14-3-3γ/SLP76 [3]): orthogonally confirmed by SPR; also recorded: orthogonally confirmed in the SPR assay
SPR RU (%) mass increase 14-3-3γ/SLP76 (14-3-3γ/SLP76 [3]): 66.9%
Selectivity between 14-3-3γ/SLP76 and 14-3-3ζ/p27 (in words) (14-3-3ζ/p27): selective for the 14-3-3γ/SLP76 system
EC50 (14-3-3ζ/p27): > 250 µM

O=C1OC[C@@H]2CCN(Cc3ccccc3)Cc3ccccc3N12 [Compound 1, (6S)-9-benzyl-4-oxa-2,9-diazatricyclo[9.4.0.02,6]pentadeca-1(11),12,14-trien-3-one]
EC50 (14-3-3γ/SLP76 [1]): 19.1 ± 7.7 µM
Stabilisation in SPR (in words) (14-3-3γ/SLP76 [3]): orthogonally confirmed and equipotent by SPR
SPR RU (%) mass increase 14-3-3γ/SLP76 (14-3-3γ/SLP76 [3]): 66.4%
Stabilisation of 14-3-3ζ/p27 in HTRF (in words) (14-3-3ζ/p27): no observed stabilisation
Selectivity between 14-3-3γ/SLP76 and 14-3-3ζ/p27 (in words) (14-3-3ζ/p27): selective for the 14-3-3γ/SLP76 interaction
EC50 (14-3-3ζ/p27): > 250 µM
